# Test results reported in ChEMBL document CHEMBL1156161, “Assessing the trypanocidal potential of natural and semi-synthetic diketopiperazines from two deep water marine-derived fungi” (Bioorg Med Chem, 2010).
# How the values were obtained:
# [1] = test system: Trypanosoma brucei brucei; assay: Antitrypanosomal activity against Trypanosoma brucei brucei 427-221a after 40 hrs by bioluminescence assay; assay type: functional, organism-based; details: for EC50 / IC50: Trypanosoma brucei, 427-221a, 40 h
# Rhodesain = Rhodesain (Trypanosoma brucei rhodesiense, UniProt Q95PM0); assay: Inhibition of […] after 5 mins by spectrofluorimetry
# [2] = Inhibition of Trypanosoma brucei brucei recombinant cathepsin B assessed after 5 mins by spectrofluorimetry
# HEK293 = assay: Cytotoxicity against HEK293 cells; assay type: cell-based; details: Homo sapiens
# [3] = Selectivity index, ratio of EC50 for HEK293 cells to EC50 for Trypanosoma brucei brucei; assay type: toxicity, cell-based; details: human, read-out: Ratio EC50
# [4] = Selectivity index, ratio of IC50 for rat L6 cells to IC50 for Trypanosoma brucei brucei
# Jurkat [5] = assay: Cytotoxicity against human Jurkat cells after 40 hrs bioluminescence assay; assay type: cell-based
# A549 = assay: Cytotoxicity against human A549 cells; assay type: functional, cell-based
# [6] = Inhibition of Su(var)3-9
# [7] = target: Thioredoxin reductase 1, cytoplasmic (Homo sapiens, UniProt Q16881); assay: Inhibition of thioredoxin reductase 1
# [8] = Selectivity index, ratio of IC50 for human Jurkat cells to IC50 for Trypanosoma brucei brucei; assay type: toxicity, cell-based; details: for Ratio IC50: jurkat; for selectivity ratio: Jurkat cells, read-out: Ratio IC50
# [9] = Cell cycle arrest in temperature sensitive mouse FT210 cells assessed as accumulation at M phase; assay type: functional, cell-based
# [10] = Induction of mutagenesis in Salmonella Typhimurium assessed as drug level required by Ames assay; assay type: toxicity; details: salmonella enterica subsp. enterica serovar typhimurium
# [11] = Induction of mutagenesis in microsomes assessed as drug level required by Ames assay; set-up: species or system Microsome
# Mus musculus = assay: Neurotoxicity in ip dosed Swiss mouse assessed as drug level required for induction of tremor; assay type: toxicity, organism-based; details: in vivo
# [12] = Toxicity in ip dosed mouse; assay type: organism-based; details: in vivo
# [13] = test system: Trypanosoma brucei brucei; assay: Antitrypanosomal activity against Trypanosoma brucei brucei at 1.25 ug/ml after 40 hrs by bioluminescence assay relative to control; assay type: functional
# HeLa = assay: Cytotoxicity against human HeLa cells; assay type: functional, cell-based
# [14] = target: Mycothiol S-conjugate amidase (Mycobacterium tuberculosis, UniProt P9WJN1); assay: Inhibition of Mycobacterium tuberculosis mycothiol-S-conjugate amidase
# [15] = Immunosuppression of mouse spleen lymphocytes; assay type: functional, tissue-based; details: lymphocyte
# HUVEC = assay: Cytotoxicity against HUVEC; assay type: cell-based; details: Homo sapiens
# [16] = Inhibition of PAF
# [17] = Toxicity in ip dosed ddY mouse; assay type: organism-based; details: in vivo
# Macrophage = assay: Immunomodulatory activity in macrophage assessed as inhibition of phagocytosis; assay type: functional; details: read-out: ED50 (the source's name)
# MDA-MB-468 = assay: Cytotoxicity against human MDA-MB-468 cells; assay type: functional, cell-based
# MCF7 = assay: Cytotoxicity against human MCF7 cells; assay type: functional, cell-based
# [18] = test system: Trypanosoma brucei rhodesiense; assay: Antitrypanosomal activity against Trypanosoma brucei rhodesiense after 40 hrs by bioluminescence assay; assay type: functional
# [19] = Ciliostatic activity against human respiratory epithelium assessed as required active concentration; assay type: functional
# Homo sapiens = organism: Homo sapiens; assay: Induction of apoptosis in human HSC assessed as required active concentration; assay type: functional
# [20] = Inhibition of NADPH oxidase
# [21] = Cytotoxicity against rainbow trout RTS11 cells; assay type: cell-based; details: Oncorhynchus mykiss
# [22] = Cytotoxicity against rainbow trout RTG2 cells; assay type: cell-based; details: Oncorhynchus mykiss
# [23] = Cytotoxicity against chinook salmon CHSE-214 cells; assay type: cell-based; details: Oncorhynchus tshawytscha
# Tetrahymena pyriformis = assay: Antiprotozoal activity against Tetrahymena pyriformis; assay type: functional, organism-based
# jurkat [24] = assay: Activation of NF-kappaB in human jurkat cells assessed as active concentration required; assay type: cell-based
# [25] = target: Acetolactate synthase catalytic subunit, mitochondrial (Saccharomyces cerevisiae S288c, UniProt P07342); assay: Inhibition of Saccharomyces cerevisiae acetolactate synthase
# [26] = Inhibition of chymotrypsin-like activity of 20S proteasome activity
# Macrophomina phaseolina [27] = assay: Antimicrobial activity against Rhizoctonia bataticola; assay type: functional; details: read-out: ED50 (the source's name)
# Macrophomina phaseolina [28] = assay: Antimicrobial activity against Macrophomina phaseolina; assay type: functional; details: read-out: ED50 (the source's name)
# [29] = test system: Globisporangium debaryanum; assay: Antimicrobial activity against Pythium debaryanum; assay type: functional; details: read-out: ED50 (the source's name)
# Pythium aphanidermatum = assay: Antimicrobial activity against Pythium aphanidermatum; assay type: functional; details: read-out: ED50 (the source's name)
# Athelia rolfsii = assay: Antimicrobial activity against Sclerotium rolfsii; assay type: functional; details: Agroathelia rolfsii; read-out: ED50 (the source's name)
# Rhizoctonia solani = assay: Antimicrobial activity against Rhizoctonia solani; assay type: functional; details: read-out: ED50 (the source's name)
# Plasmodium falciparum = assay: Antiparasitic activity against chloroquine-resistant Plasmodium falciparum K1; assay type: functional, organism-based
# [30] = Inhibition of tubulin polymerization assessed as blockade of microtubule assembly at 250 uM; set-up: scale not given: the % may be the effect or the level left
# Chain of Rhodesain (Q95PM0 whole entry): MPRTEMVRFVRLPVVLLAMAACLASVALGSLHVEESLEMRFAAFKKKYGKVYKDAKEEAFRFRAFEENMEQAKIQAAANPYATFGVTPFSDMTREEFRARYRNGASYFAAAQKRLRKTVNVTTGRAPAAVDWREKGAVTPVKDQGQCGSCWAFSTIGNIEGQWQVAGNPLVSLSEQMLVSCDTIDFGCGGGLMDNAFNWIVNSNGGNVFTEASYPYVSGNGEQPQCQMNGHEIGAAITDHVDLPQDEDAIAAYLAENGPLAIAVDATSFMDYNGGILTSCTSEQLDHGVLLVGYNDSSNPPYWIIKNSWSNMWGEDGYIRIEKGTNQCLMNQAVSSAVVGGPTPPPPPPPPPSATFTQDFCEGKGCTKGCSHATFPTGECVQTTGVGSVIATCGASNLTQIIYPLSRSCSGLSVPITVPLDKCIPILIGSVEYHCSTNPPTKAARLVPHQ
# Chain of Mycothiol S-conjugate amidase (P9WJN1 whole entry): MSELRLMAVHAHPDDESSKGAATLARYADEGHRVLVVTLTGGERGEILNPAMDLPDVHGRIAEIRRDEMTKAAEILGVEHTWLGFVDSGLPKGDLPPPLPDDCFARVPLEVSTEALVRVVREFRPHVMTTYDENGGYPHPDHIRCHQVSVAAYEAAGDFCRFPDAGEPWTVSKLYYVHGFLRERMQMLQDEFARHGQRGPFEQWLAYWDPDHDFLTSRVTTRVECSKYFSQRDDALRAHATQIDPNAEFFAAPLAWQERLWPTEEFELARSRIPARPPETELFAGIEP
# Chain of Thioredoxin reductase 1, cytoplasmic (Q16881 whole entry): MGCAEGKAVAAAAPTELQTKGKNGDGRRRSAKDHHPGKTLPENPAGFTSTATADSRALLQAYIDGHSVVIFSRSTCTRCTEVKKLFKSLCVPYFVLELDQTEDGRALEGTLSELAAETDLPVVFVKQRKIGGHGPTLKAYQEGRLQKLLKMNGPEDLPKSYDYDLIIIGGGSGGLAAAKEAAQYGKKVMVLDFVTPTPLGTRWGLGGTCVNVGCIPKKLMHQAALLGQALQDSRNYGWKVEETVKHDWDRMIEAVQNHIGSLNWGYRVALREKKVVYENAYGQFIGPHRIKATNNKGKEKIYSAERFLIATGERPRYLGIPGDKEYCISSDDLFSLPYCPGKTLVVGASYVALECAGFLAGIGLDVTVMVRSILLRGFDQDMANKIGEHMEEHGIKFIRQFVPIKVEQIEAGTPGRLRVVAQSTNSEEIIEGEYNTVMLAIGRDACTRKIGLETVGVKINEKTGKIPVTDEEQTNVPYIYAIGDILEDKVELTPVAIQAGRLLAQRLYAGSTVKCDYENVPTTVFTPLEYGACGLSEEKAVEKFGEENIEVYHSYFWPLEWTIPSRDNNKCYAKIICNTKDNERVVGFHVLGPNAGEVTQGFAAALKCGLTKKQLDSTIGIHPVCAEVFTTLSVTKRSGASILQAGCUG
# Chain of Acetolactate synthase catalytic subunit, mitochondrial (P07342 whole entry): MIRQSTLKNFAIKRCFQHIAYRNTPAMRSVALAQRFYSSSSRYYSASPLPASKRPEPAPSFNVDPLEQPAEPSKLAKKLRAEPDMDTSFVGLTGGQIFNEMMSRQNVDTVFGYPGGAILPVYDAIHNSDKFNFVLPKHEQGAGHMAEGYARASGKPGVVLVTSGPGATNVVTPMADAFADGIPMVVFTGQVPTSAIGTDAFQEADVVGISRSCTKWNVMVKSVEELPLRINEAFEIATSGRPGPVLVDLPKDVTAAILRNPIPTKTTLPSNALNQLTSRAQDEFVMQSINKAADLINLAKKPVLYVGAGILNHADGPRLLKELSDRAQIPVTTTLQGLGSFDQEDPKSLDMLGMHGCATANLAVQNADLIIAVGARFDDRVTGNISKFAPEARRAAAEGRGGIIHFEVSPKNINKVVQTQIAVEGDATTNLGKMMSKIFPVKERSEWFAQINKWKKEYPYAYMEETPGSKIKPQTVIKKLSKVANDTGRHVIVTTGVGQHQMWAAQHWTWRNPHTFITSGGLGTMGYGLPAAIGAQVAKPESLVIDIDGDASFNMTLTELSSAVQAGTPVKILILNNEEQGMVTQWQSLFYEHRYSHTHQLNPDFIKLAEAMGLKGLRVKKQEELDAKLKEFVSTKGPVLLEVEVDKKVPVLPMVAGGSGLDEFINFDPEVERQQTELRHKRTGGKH
smiles,measurement,setting,value
Cc1ccc(/C(=N\NC(N)=S)c2cc(C(F)(F)F)cc(C(F)(F)F)c2)cc1 [THIOSEMICARBAZONE STANDARD],EC50,[1],1.3 µM
same,IC50,Rhodesain,0.044 µM
same,IC50,[2],15 µM
same,EC50,HEK293,25 µM
same,selectivity ratio,[3],19
Nc1nc(N)nc(Nc2ccc([As]3SCC(CO)S3)cc2)n1 (stereo unspecified) [MELARSOPROL],IC50,[1],0.004 µM
same,selectivity ratio,[4],1940
CN1C(=O)[C@@]23C[C@]4([C@]56C[C@@]78SS[C@@](CO)(C(=O)N7[C@H]5Nc5ccccc56)N(C)C8=O)c5ccccc5N[C@@H]4N2C(=O)[C@]1(CO)SS3 [CHAETOCIN],IC50,[1],0.002 µM
same,IC50,Rhodesain,> 50 µM
same,IC50,[2],> 50 µM
same,IC50,Jurkat [5],< 0.6 µM
same,IC50,A549,< 0.025 µM
same,IC50,[6],0.6 µM
same,IC50,[7],4.6 µM
N#Cc1nc(NCc2ccc(Cl)c(Cl)c2)c2ncn(CCCO)c2n1,EC50,[1],0.11 µM
same,EC50,HEK293,25 µM
same,selectivity ratio,[3],227
CS[C@]1(COC(C)=O)C(=O)N2[C@H]3C(=CC=C[C@@H]3OC(C)=O)C[C@@]2(SC)C(=O)N1C [DIACETYLBIS(METHYLTHIO)GLIOTOXIN],IC50,[1],35.5 µM
same,IC50,Rhodesain,> 50 µM
same,IC50,[2],> 50 µM
same,IC50,Jurkat [5],56 µM
same,Ratio IC50,[8],1.6 ratio
COc1ccc2c3c4n(c2c1)[C@H](C=C(C)C)OOC(C)(C)C[C@@H]4N1C(=O)[C@@H]2CCCN2C(=O)[C@]1(O)[C@H]3O [VERRUCULOGEN],IC50,[1],12.9 µM
same,IC50,Rhodesain,45 µM
same,IC50,[2],> 50 µM
same,IC50,Jurkat [5],97 µM
same,selectivity ratio,[8],7.5
same,MIC,[9],12.2 µM
same,Activity,[10],1 µM
same,Activity,[11],1 µM
same,Activity,Mus musculus,0.78 mg/kg
same,LD50,[12],2.4 mg/kg
CN1C(=O)[C@]23SS[C@@]1(C)C(=O)N2[C@H]1Nc2ccccc2[C@@]1([C@@]12c4ccccc4N[C@@H]1N1C(=O)[C@]4(CO)SS[C@]1(C(=O)N4C)[C@H]2O)[C@@H]3O [VERTICILLIN B],Activity,[13],109%
same,IC50,[1],0.007 µM
same,IC50,Rhodesain,> 50 µM
same,IC50,[2],> 50 µM
same,IC50,Jurkat [5],< 0.6 µM
same,EC50,HeLa; read-out: ED50 (the source's name),0.28 µM
CS[C@]1(Cc2c[nH]c3ccccc23)NC(=O)[C@](CO)(SC)N(C)C1=O [CHETOSEMINUDIN B],IC50,[1],5.9 µM
same,IC50,Rhodesain,> 50 µM
same,IC50,[2],> 50 µM
same,IC50,Jurkat [5],94.9 µM
same,Ratio IC50,[8],16.1 ratio
same,IC50,[14],70 µM
same,IC50,[15],24 µM
COc1ccc2c(c1)NC(=O)[C@@]21C=C2C(=O)N3CCC[C@H]3C(=O)N2[C@H]1C=C(C)C [SPIROTRYPROSTATIN B],IC50,[1],5.7 µM
same,IC50,Rhodesain,> 50 µM
same,IC50,[2],> 50 µM
same,IC50,Jurkat [5],21.1 µM
same,Ratio IC50,[8],3.7 ratio
CS[C@]1(CO)C(=O)N2[C@H]3C(=CC=C[C@@H]3O)C[C@@]2(SC)C(=O)N1C [BIS(DETHIO)BIS(METHYLTHIO)GLIOTOXIN],IC50,[1],40.2 µM
same,IC50,Rhodesain,> 50 µM
same,IC50,[2],> 50 µM
same,IC50,Jurkat [5],140 µM
same,selectivity ratio,[8],3.5
same,IC50,HeLa,> 2.81 µM
same,IC50,HUVEC,1.12 µM
same,IC50,[16],8.4 µM
same,LD50,[17],> 500 mg/kg
same,EC50,Macrophage,> 10 µM
N=C(N)c1ccc(OCCCCCOc2ccc(C(=N)N)cc2)cc1 [PENTAMIDINE],IC50,[1],0.007 µM
COc1ccc2c(c1)NC(=O)[C@@]21C[C@H]2C(=O)N3CCC[C@H]3C(=O)N2[C@H]1C=C(C)C [SPIROTRYPROSTATIN A],IC50,[1],> 50 µM
same,IC50,MDA-MB-468,110 µM
same,IC50,MCF7,> 300 µM
CS[C@]1(CO)C(=O)N2c3c(O)cccc3C[C@@]2(SC)C(=O)N1C [DEHYDROBIS(METHYLTHIO)GLIOTOXIN],IC50,[1],8.5 µM
same,IC50,Rhodesain,19.5 µM
same,IC50,[2],> 50 µM
same,IC50,Jurkat [5],141 µM
same,Ratio IC50,[8],16.6 ratio
same,IC50,[16],16.9 µM
C/C(=C\Cc1c(O)c(Cl)c(C)c(C=O)c1O)CC/C=C(\C)[C@@H]1CC(=O)C(C)(C)O1 [ASCOFURANONE],IC100,[1],0.03 µM
COc1ccc2c(c1)N(C)C(=O)[C@@]21C[C@H]2C(=O)N3CCC[C@H]3C(=O)N2[C@H]1C=C(C)C [N-METHYLSPIROTRYPROSTATIN A],IC50,[1],> 50 µM
"CS[C@]1(C)NC(=O)[C@](Cc2c[nH]c3ccccc23)(SC)NC1=O [3,6 BISMETHYL(THIOCYCLO)ALANYLTRYPTOPHYL]",IC50,[1],> 50 µM
C/C=C(\C)[C@@H]1C=C[C@@H]2C[C@H](C)C[C@H](C)C2[C@@H]1C(=O)C1=CC(C)(OCCCC)NC1=O (stereo partly specified) [ASCOSALIPYRROLIDINONE A],MIC,[18],30 µg/mL
CS[C@]1(COC(C)=O)C(=O)N2[C@H]3C(=CC=C[C@@H]3O)C[C@@]2(SC)C(=O)N1C,IC50,[1],> 50 µM
CN1C(=O)[C@]23CC4=CC=C[C@H](O)[C@H]4N2C(=O)[C@@]1(CO)SS3 [GLIOTOXIN],Activity,[19],30.7 µM
same,Activity,Homo sapiens,0.3 µM
same,IC50,[20],9 µM
same,IC50,[1],0.01 µM
same,IC50,Rhodesain,> 50 µM
same,IC50,[2],0.5 µM
same,IC50,Jurkat [5],< 1 µM
same,IC50,HeLa,2.45 µM
same,IC50,HUVEC,0.123 µM
same,IC50,A549,0.003 µM
same,EC50,[21],1.35 µM
same,EC50,[22],2 µM
same,EC50,[23],1.65 µM
same,EC50,Tetrahymena pyriformis,0.38 µM
same,IC50,[16],93 µM
same,IC50,[14],50 µM
same,Activity,jurkat [24],300 nM
same,IC50,[25],0.2 µM
same,IC50,[26],10 µM
same,EC50,Macrophomina phaseolina [27],0.9 µM
same,EC50,Macrophomina phaseolina [28],5.4 µM
same,EC50,[29],90.1 µM
same,EC50,Pythium aphanidermatum,36.9 µM
same,EC50,Athelia rolfsii,6.47 µM
same,EC50,Rhizoctonia solani,9.75 µM
same,IC50,Plasmodium falciparum,3.6 µM
same,LD50,[17],17.9 mg/kg
same,EC50,Macrophage,0.104 µM
COc1ccc2c(c1)N(C)C(=O)[C@@]21C=C2C(=O)N3CCC[C@H]3C(=O)N2[C@H]1C=C(C)C [N-METHYL-6-METHOXYSPIROTRYPROSTATIN B],IC50,[1],> 50 µM
COc1ccc2c3c([nH]c2c1)[C@H](C=C(C)C)N1C[C@@H]2CCCN2C[C@@]1(O)[C@H]3O [CYCLOTRYPROSTATIN A],Activity,[30],66.4%
same,IC50,[1],> 50 µM
CS[C@]1(CO)C(=O)N2[C@H]3C(=CC=C[C@@H]3OC(C)=O)C[C@@]2(SC)C(=O)N1C,IC50,[1],6.5 µM
same,IC50,Rhodesain,12.8 µM
same,IC50,[2],> 50 µM
same,IC50,Jurkat [5],125 µM
same,Ratio IC50,[8],19.2 ratio
